From ChEMBL document CHEMBL2062447, “The cephalostatins. 22. synthesis of bis-steroidal pyrazine pyrones (1)” (2012) come the findings set out here.

pEC50: −log10 of the molar value.

The test system of this experiment is P388. As to the kind of experiment: Growth inhibition of mouse P388 cells. The class given is functional. The settings on record: read-out: ED50 (the source's name).
As to `CC(=O)O[C@H]1CC[C@H]2[C@@H]3CC[C@H]4Cc5nc6c(nc5C[C@]4(C)[C@H]3CC[C@]12C)C[C@@H]1CC[C@@H]2[C@H](CC[C@]3(C)[C@@H](OC(C)=O)CC[C@@H]23)[C@@]1(C)C6`, the pEC50 was 4.04.

As to `C[C@]12Cc3nc4c(nc3C[C@@H]1CC[C@@H]1[C@@H]2CC[C@]2(C)C(=O)CC[C@@H]12)C[C@@]1(C)[C@@H](CC[C@@H]2[C@@H]1CC[C@]1(C)C(=O)CC[C@@H]21)C4`, the pEC50 is 3.92.

Turning to `C[C@]12Cc3nc4c(nc3C[C@@H]1CC[C@@H]1[C@@H]2CC[C@]2(C)C(OS(=O)(=O)C(F)(F)F)=CC[C@@H]12)C[C@@]1(C)[C@@H](CC[C@@H]2[C@@H]1CC[C@]1(C)C(OS(=O)(=O)C(F)(F)F)=CC[C@@H]21)C4`, the pEC50 was 4.38.

On to `C[C@]12Cc3nc4c(nc3C[C@@H]1CC[C@H]1[C@H]3CC=C(c5ccc(=O)oc5)[C@@]3(C)CC[C@@H]12)C[C@@]1(C)[C@@H](CC[C@H]2[C@H]3CC=C(c5ccc(=O)oc5)[C@@]3(C)CC[C@@H]21)C4`, for which the pEC50 is 4.24.

For the molecule `C[C@]12Cc3nc4c(nc3C[C@@H]1CC[C@@H]1[C@@H]2[C@@H](O)C[C@]2(C)/C(=C/[C@@H]3CC(=O)C=CO3)CC[C@@H]12)C[C@@]1(C)[C@@H](CC[C@@H]2[C@@H]1[C@@H](O)C[C@]1(C)/C(=C/[C@H]3CC(=O)C=CO3)CC[C@@H]21)C4`, the pEC50 is 4.60.

As for `C[C@@H]1[C@]2(O[C@H]3C=C4[C@@H]5CC[C@H]6Cc7nc8c(nc7C[C@]6(C)[C@H]5C[C@@H](O)[C@]4(C)[C@]31O)C[C@@H]1CC[C@H]3C4=CC[C@@H]5[C@H](C)[C@@]6(OC[C@]45C(=O)C[C@@H]3[C@@]1(C)C8)OC(C)(C)C[C@H]6O)O[C@](C)(CO)C[C@H]2O` [CEPHALOSTATIN 1], the pEC50 is 9.00.

Turning to `C[C@@H]1[C@]2(O[C@H]3C=C4[C@@H]5CC[C@H]6Cc7nc8c(nc7C[C@]6(C)[C@H]5C[C@@H](O)[C@]4(C)[C@]31O)C[C@@H]1CC[C@H]3C4=C[C@@H]5O[C@]6(O[C@](C)(CO)C[C@H]6O)[C@@H](C)[C@]5(O)[C@@]4(C)[C@H](O)C[C@@H]3[C@@]1(C)C8)O[C@](C)(CO)C[C@H]2O` [CEPHALOSTATIN 12], the pEC50 is 7.12.
